Measured values from patent publication US20070154567A1, “Use of mercury to treat cancer” (priority 2006, published 2007).

Test system: non-operable neck tumor of unknown origin and metastasis in the lungs
Assay: Oral inorganic mercury (II) treatment of a pet English Setter: blood data and clinical follow-up
Assay type: in vivo, dog
Parameters: Anion Gap / MCV / MCH / MCHC / Neutrophils, absolute / Lymphocytes, absolute / Monocytes, absolute / Eosinophils, absolute: unit not given here
Description: A 10 years old female English Setter was diagnosed with a non-operable neck tumor of unknown origin and metastasis in the lungs.
The dog completed 130-day inorganic mercury (II) treatment that consisted of 58 days of the first treatment course followed by 20 days of an interval period, and the 52-day second treatment course. The formulation contained 1 mM mercury acetate in 20 mM sodium acetate buffer, pH 4.5, with 100 mM sucrose and 150 mM sodium chloride additives. It was introduced orally to the dog three times a day at 0.5 micromole Hg^2+/kg/day. At the start of the treatment, the dog was in poor health condition: was easily tired, had difficulty to swallow, heavy breathing due to lung metastasis. The tumor was easily palpated at the neck. […] These changes were correlated with reduction in ALP levels (Days 5, 22, 40, 65).
During the second treatment course the progression of the disease was slowed down, but not to the degree observed during the first treatment course. The treatment was stopped at Day 128, and the dog was euthanized 2-3 weeks later.

SMILES: CC(=O)[O-].CC(=O)[O-].[Hg+2] [inorganic mercury (II), mercury acetate]
- ALT (SGPT) (Day 5): 84 U/L
- AST (SGOT) (Day 5): 22 U/L
- Albumin (Day 5): 3.3 g/dL
- Albumin/Globulin Ratio (Day 5): 1.1
- Alkaline Phosphatase (ALP) (Day 5): 204 U/L
- Amylase (Day 5): 771 U/L
- Anion Gap (Day 5): 26
- BUN (Day 5): 39 mg/dL
- BUN/Creatinine Ratio (Day 5): 43.3
- CPK (Day 5): 84 U/L
- Calcium (Day 5): 11.7 mg/dL
- Chloride (Day 5): 113 mE/L
- Cholesterol (Day 5): 269 mg/dL
- Creatinine (Day 5): 0.9 mg/dL
- Direct Billirubin (Day 5): 0 mg/dL
- Eosinophils, (%) (Day 5): 4%
- Eosinophils, absolute (Day 5): 576
- GGT (Day 5): 2 U/L
- Globulin (Day 5): 2.9 g/dL
- Glucose (Day 5): 116 mg/dL
- Hematocrit (Day 5): 41.8%
- Hemoglobin (Day 5): 14.5 g/dL
- Indirect Billirubin (Day 5): 0.2 mg/dL
- Lipase (Day 5): 799 U/L
- Lymphocytes, (%) (Day 5): 48%
- Lymphocytes, absolute (Day 5): 6912
- MCH (Day 5): 24.5
- MCHC (Day 5): 34.7
- MCV (Day 5): 71
- Monocytes, (%) (Day 5): 6%
- Monocytes, absolute (Day 5): 864
- Na/K ratio (Day 5): 32
- Neutrophils, (%) (Day 5): 41%
- Neutrophils, absolute (Day 5): 5904
- Phosphorus (Day 5): 5.2 mg/dL
- Platelet count (Day 5): 534 10^3/microl
- Potassium (Day 5): 4.8 mE/L
- RBC (Day 5): 5.9 10^6/microl
- Sodium (Day 5): 152 mE/L
- T4 (Day 5): 1.4 µg/dL
- Total Billirubin (Day 5): 0.2 mg/dL
- Total Protein (Day 5): 6.2 g/dL
- WBC (Day 5): 14.4 10^3/microl
- tCO2 (Day 5): 18 mEq/L
- ALT (SGPT) (Day 22): 84 U/L
- AST (SGOT) (Day 22): 13 U/L
- Albumin (Day 22): 3.3 g/dL
- Albumin/Globulin Ratio (Day 22): 1.2
- Alkaline Phosphatase (ALP) (Day 22): 142 U/L
- Amylase (Day 22): 738 U/L
- Anion Gap (Day 22): 24
- BUN (Day 22): 17 mg/dL
- BUN/Creatinine Ratio (Day 22): 21.3
- CPK (Day 22): 96 U/L
- Calcium (Day 22): 10.8 mg/dL
- Chloride (Day 22): 113 mE/L
- Cholesterol (Day 22): 230 mg/dL
- Creatinine (Day 22): 0.8 mg/dL
- Direct Billirubin (Day 22): 0 mg/dL
- Eosinophils, (%) (Day 22): 2%
- Eosinophils, absolute (Day 22): 332
- GGT (Day 22): 3 U/L
- Globulin (Day 22): 2.8 g/dL
- Glucose (Day 22): 102 mg/dL
- Hematocrit (Day 22): 44.7%
- Hemoglobin (Day 22): 15.2 g/dL
- Indirect Billirubin (Day 22): 0.1 mg/dL
- Lipase (Day 22): 718 U/L
- Lymphocytes, (%) (Day 22): 64%
- Lymphocytes, absolute (Day 22): 10624
- MCH (Day 22): 24.3
- MCHC (Day 22): 34.1
- MCV (Day 22): 71
- Na/K ratio (Day 22): 26
- Neutrophils, (%) (Day 22): 34%
- Neutrophils, absolute (Day 22): 5644
- Phosphorus (Day 22): 3.6 mg/dL
- Platelet count (Day 22): 483 10^3/microl
- Potassium (Day 22): 5.7 mE/L
- RBC (Day 22): 6.26 10^6/microl
- Sodium (Day 22): 150 mE/L
- T4 (Day 22): 1.8 µg/dL
- Total Billirubin (Day 22): 0.1 mg/dL
- Total Protein (Day 22): 6.1 g/dL
- WBC (Day 22): 16.6 10^3/microl
- tCO2 (Day 22): 19 mEq/L
- ALT (SGPT) (Day 40): 87 U/L
- AST (SGOT) (Day 40): 20 U/L
- Albumin (Day 40): 3.4 g/dL
- Albumin/Globulin Ratio (Day 40): 1.1
- Alkaline Phosphatase (ALP) (Day 40): 111 U/L
- Anion Gap (Day 40): 28
- BUN (Day 40): 22 mg/dL
- BUN/Creatinine Ratio (Day 40): 24.4
- CPK (Day 40): 124 U/L
- Calcium (Day 40): 11.0 mg/dL
- Chloride (Day 40): 110 mE/L
- Cholesterol (Day 40): 222 mg/dL
- Creatinine (Day 40): 0.9 mg/dL
- Direct Billirubin (Day 40): 0.1 mg/dL
- Eosinophils, (%) (Day 40): 1%
- Eosinophils, absolute (Day 40): 160
- GGT (Day 40): 2 U/L
- Globulin (Day 40): 3.0 g/dL
- Glucose (Day 40): 99 mg/dL
- Hematocrit (Day 40): 46.1%
- Hemoglobin (Day 40): 14.8 g/dL
- Indirect Billirubin (Day 40): 0 mg/dL
- Lymphocytes, (%) (Day 40): 64%
- Lymphocytes, absolute (Day 40): 10240
- MCH (Day 40): 23.7
- MCHC (Day 40): 32.2
- MCV (Day 40): 74
- Monocytes, (%) (Day 40): 6%
- Monocytes, absolute (Day 40): 960
- Na/K ratio (Day 40): 26
- Neutrophils, (%) (Day 40): 29%
- Neutrophils, absolute (Day 40): 4640
- Phosphorus (Day 40): 4.6 mg/dL
- Platelet count (Day 40): 511 10^3/microl
- Potassium (Day 40): 5.7 mE/L
- RBC (Day 40): 6.26 10^6/microl
- Sodium (Day 40): 151 mE/L
- Total Billirubin (Day 40): 0.1 mg/dL
- Total Protein (Day 40): 6.4 g/dL
- WBC (Day 40): 16 10^3/microl
- tCO2 (Day 40): 19 mEq/L
- ALT (SGPT) (Day 65): 111 U/L
- AST (SGOT) (Day 65): 28 U/L
